Assay in all cases: NCI-60 cell line screen, 48 h
Assay [1] deals with RPMI-8226.
Assay [2] has as its system SK-MEL-5.
The test system of assay [3] is SF-268.
Assay [4] concerns HCT-116.
For assay [5], the system named is HCT-15.
In assay [6] the test system is UACC-62.
For assay [7], the system named is K562.
The test system of assay [8] is COLO 205.
Assay [9] deals with A549.
The test system of assay [10] is OVCAR-3.
The subject of assay [11] is KM12.
The test system of assay [12] is Malme-3M.
The test system of assay [13] is OVCAR-5.
The subject of assay [14] is OVCAR-8.
The subject of assay [15] is HT-29.
The test system of assay [16] is UO-31.
The subject of assay [17] is U-251.
In assay [18] the test system is NCI-H226.
For assay [19], the system named is HOP-92.
In assay [20] the test system is HCC 2998.

From ChEMBL document CHEMBL1201862, “PubChem BioAssay data set” (2004) come the findings set out here.

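Dose response: 5 concentrations. Exposure: 48 h. Format: 96-well plates. Endpoint: linear interpolation; highest concentration if not reached. GI50 is the concentration that inhibits growth by half.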 Active and inactive are the calls of the source. No stated cut-off is given here; in the data, active = GI50 up to about 1.1 µM and inactive = higher. Non-standard residues stand in square brackets, D forms with d. Residues, ends and D or L forms follow the SMILES beside them. ξ: configuration not given here. Pentanoyl(2-O,4-OH,5-Cl) = O=C(O)C(O)CC(O)CCl; Ile(3ξ) = CCC(C)[C@H](N)C(=O)O; NMeV = CN[C@H](C(=O)O)C(C)C; NMeA = CN[C@@H](C)C(=O)O; βAla = NCCC(=O)O

On to `N#Cc1c(NC(=S)NC(=O)c2ccccc2)nc2c(c1-c1ccccc1)CCCC2`, for which the GI50 in assay [1] is > 100 µM (inactive); in [2], 73.6 µM (inactive); in assay [3], 0.299 µM (active); in assay [4] it was > 100 µM (inactive); in assay [5], above 100 µM; in [6], > 100 µM (inactive). For the same compound, the GI50 in [7] is > 100 µM (inactive); in [8], > 100 µM (inactive); in assay [9], > 100 µM (inactive); in assay [10] it was > 100 µM (inactive); in assay [11], > 100 µM (inactive); in [12], > 10 µM (inactive). Further, the GI50 in assay [13] is > 100 µM (inactive); in assay [14] it was 36.6 µM (inactive); in [15], > 100 µM (inactive); in assay [16], 88.7 µM (inactive); in [17] it was > 100 µM (inactive).

In the case of `O=C1CCCCC2N(C(c3ccccc3)c3ccccc3)CC[C@@]12c1ccccc1.O=C1CCCC[C@H]2N(C(c3ccccc3)c3ccccc3)CC[C@@]12c1ccccc1` (some centres undefined), the GI50 is 2.77 µM (inactive) in assay [1]; 4.57 µM (inactive) in [2]; > 10 µM (inactive) in assay [3]; 2.99 µM (inactive) in assay [4]; 7.93 µM in [5]; 6.38 µM (inactive) in assay [18]. Also, the GI50 in assay [6] is > 10 µM (inactive); in assay [7], 4.27 µM (inactive); in assay [19] it was 2.56 µM (inactive); in assay [9], > 10 µM (inactive); in assay [10] it was > 10 µM (inactive); in assay [11], > 10 µM (inactive). The GI50 was > 10 µM (inactive) in assay [13]; > 10 µM (inactive) in assay [14]; 4 µM (inactive) in [15]; 8.05 µM (inactive) in assay [16]; > 10 µM (inactive) in assay [17].

With `O=C1NC(=O)C(CCO)(c2ccccc2)C(=O)N1`, the GI50 was > 100 µM (inactive) in assay [2]; > 100 µM (inactive) in assay [3]; > 100 µM (inactive) in assay [4]; above 100 µM in assay [5]; > 100 µM (inactive) in [18]; > 100 µM (inactive) in assay [6]. In addition, the GI50 in assay [7], in [8], in assay [19], in assay [9], in [10] and in assay [11] was > 100 µM (inactive) throughout. Also, the GI50 in [12], in assay [13], in assay [14], in [20], in assay [15] and in assay [16] was > 100 µM (inactive) in each case. Moreover, in [17], the GI50 is > 100 µM (inactive).

For `Cc1ccc(S(=O)(=O)N(C=O)N=C2CCN(Cc3ccccc3)CC2)cc1`, the GI50 in assay [1] is > 100 µM (inactive); in [2], > 100 µM (inactive); in assay [4] it was > 100 µM (inactive); in [5], above 100 µM; in assay [18], > 100 µM (inactive); in [6], > 100 µM (inactive). The GI50 in [7], in assay [8], in assay [9], in assay [10], in assay [11] and in assay [12] was > 100 µM (inactive) throughout. The GI50 in [13], in assay [14], in assay [20], in assay [15], in assay [16] and in [17] was > 100 µM (inactive) in each case.

Consider `CCC1OC2C(CC=C(C)C)=C3OC(C)(O)C(C)(CC)C(OC(C)=O)C3=C3OC(=O)C=C1C32` (centres undefined), for which the GI50 in [1] was 22.1 µM (inactive); in assay [2], 20.4 µM (inactive); in assay [3], 31.4 µM (inactive); in [4] it was 25.7 µM (inactive); in [5], 37 µM; in assay [6] it was 18.8 µM (inactive). Besides, the GI50 in assay [7] is 32.8 µM (inactive); in [8], 28.2 µM (inactive); in assay [19] it was 59.4 µM (inactive); in assay [9], 31.6 µM (inactive); in assay [10], 37.8 µM (inactive); in assay [11], 23.1 µM (inactive). The GI50 in [12] was 21.4 µM (inactive); in [13], 22 µM (inactive); in assay [14] it was 35 µM (inactive); in assay [20] it was 24 µM (inactive); in [15], 22.8 µM (inactive); in assay [16] it was 22.6 µM (inactive). For the same compound, the GI50 in [17] is 30.3 µM (inactive).

Take `CC(C)(C)/N=c1/n(C(C)(C)C)oc(=O)n1C(C)(C)C`: the GI50 in [2] was > 100 µM (inactive); in assay [4] it was > 100 µM (inactive); in assay [5], above 100 µM; in assay [18], > 100 µM (inactive); in [6], > 100 µM (inactive); in assay [7], > 100 µM (inactive). For the same compound, the GI50 in assay [8], in [19], in assay [9], in assay [10], in [11] and in assay [12] was > 100 µM (inactive) each time. Moreover, the GI50 in assay [13], in assay [14], in assay [20], in assay [15], in [16] and in assay [17] was > 100 µM (inactive) throughout.

In the case of `Cc1c(Cl)c(=O)oc2cc(OCC(=O)c3ccccc3)ccc12`, the GI50 in assay [2] was > 100 µM (inactive); in assay [3], > 100 µM (inactive); in [5] it was above 100 µM; in assay [18], > 100 µM (inactive); in assay [6], > 100 µM (inactive); in [7] it was > 100 µM (inactive). Moreover, the GI50 in [8] is > 100 µM (inactive); in assay [19] it was 97.5 µM (inactive); in assay [9], > 100 µM (inactive); in assay [10] it was > 100 µM (inactive); in assay [11], > 100 µM (inactive); in assay [12], > 100 µM (inactive). For the same compound, the GI50 is > 100 µM (inactive) in [13]; > 100 µM (inactive) in [14]; > 100 µM (inactive) in assay [20]; > 100 µM (inactive) in [15]; > 100 µM (inactive) in [16]; 33.2 µM (inactive) in assay [17].

For `N#CCCC(CCC#N)(CCC#N)NO`, the GI50 in assay [1] is > 100 µM (inactive); in assay [2], > 100 µM (inactive); in assay [3], > 100 µM (inactive); in assay [4], > 100 µM (inactive); in [5], above 100 µM; in assay [18], > 100 µM (inactive). For the same compound, the GI50 in [6], in [7], in [8], in assay [19], in [9] and in [11] was > 100 µM (inactive) in each case. For the same compound, the GI50 in assay [12], in assay [13], in [14], in assay [15], in assay [16] and in [17] was > 100 µM (inactive) throughout.

For `CN(C)CCCNC(=O)N/N=C/c1ccccc1`, the GI50 in assay [2] was > 100 µM (inactive); in [3], > 100 µM (inactive); in [4] it was > 100 µM (inactive); in assay [5] it was above 100 µM; in assay [18] it was > 100 µM (inactive); in [6], > 100 µM (inactive). The GI50 in assay [7], in assay [9], in assay [10], in assay [11], in assay [12] and in assay [14] was > 100 µM (inactive) throughout. The GI50 in [15], in [16] and in [17] was > 100 µM (inactive) each time.

Consider `C=CCC12CC(=O)C=C1CCC1(C2)OCCO1` (centres undefined), for which the GI50 in assay [1] was > 100 µM (inactive); in assay [2], > 100 µM (inactive); in assay [3] it was > 100 µM (inactive); in [4] it was > 100 µM (inactive); in assay [5], above 100 µM; in [18] it was > 100 µM (inactive). Besides, the GI50 in assay [6], in [7], in [8], in [9], in assay [10] and in assay [11] was > 100 µM (inactive) each time. Also, the GI50 in assay [12], in assay [20], in assay [16] and in assay [17] was > 100 µM (inactive) each time.

With `CCC(C)[C@@H]1NC(=O)[C@@H]2CCCN2C(=O)C(CC(O)CCl)OC(=O)CCNC(=O)[C@H](C)N(C)C(=O)[C@H](C(C)C)N(C)C1=O` (some centres undefined) (cyclo([Ile(3ξ)][NMeV][NMeA][βAla][Pentanoyl(2-O,4-OH,5-Cl)]P)), the GI50 in assay [1] was 0.247 µM (active); in assay [2], 0.248 µM (active); in assay [3], > 100 µM (inactive); in assay [4], 13.9 µM (inactive); in assay [5] it was above 80.2 µM; in assay [18], > 100 µM (inactive). Further, the GI50 in [6] is 0.923 µM (active); in assay [7], > 45.1 µM (inactive); in assay [8] it was 1.91 µM (inactive); in assay [19], 1.09 µM (active); in assay [9], 47.6 µM (inactive); in assay [10], 17.9 µM (inactive). Also, the GI50 is > 61.9 µM (inactive) in assay [11]; 12.3 µM (inactive) in assay [12]; > 100 µM (inactive) in assay [13]; > 100 µM (inactive) in assay [14]; 3.12 µM (inactive) in assay [15]; > 93.3 µM (inactive) in assay [16]. The GI50 in assay [17] was > 29 µM (inactive).
